# Laboratory results: patent US9434994B2, “Methods for prediction of clinical outcome to epidermal growth factor receptor inhibitors by non-small cell lung cancer patients” (The Regents of the University of Colorado, a body corporate, priority 2004, dated 2016)
# Values joined by “and” are separate entries in the source; they are usually repeats but may differ in a detail not shown here. Equal values may be shown once. Read-outs that look alike come from different tables or passages of the source.
# System: advanced non-small-cell lung cancer patients
# [1] = EGFR FISH Group 1 (disomy to low polysomy)
# [2] = EGFR FISH Group 2 (high polysomy, amplification)
# [3] = EGFR FISH- and/or P-Akt- (any negative)
# [4] = EGFR IHC- and/or P-Akt- (any negative)
# [5] = EGFR mutation- and/or P-Akt- (any negative)
# [6] = HER2 FISH+ and/or EGFR IHC+ (other three groups combined)
compound,measurement,setting,value
COc1cc2ncnc(Nc3ccc(F)c(Cl)c3)c2cc1OCCCN1CCOCC1 [gefitinib],Patients progressed at 12 months,EGFR FISH Group 1,91%
same,Two-year survival rate,EGFR FISH Group 1,17%
same,% Patients without disease progression at 12 months,[1],8.7%
same,Complete and Partial Response,[1],2.9%
same,Median Time to Progression,[1],2.5 months
same,One-year Survival Rate,[1],36.2%
same,Progressive Disease,[1],73.9%
same,Stable Disease,[1],23.2%
same,Patients progressed at 12 months,EGFR FISH Group 2,61%
same,Two-year survival rate,EGFR FISH Group 2,40%
same,% Patients without disease progression at 12 months,[2],39.4%
same,Complete and Partial Response,[2],36% and 36.4%
same,Disease Control Rate,[2],66.7%
same,Median Time to Progression,[2],6.3 months
same,One-year Survival Rate,[2],63.6%
same,Progressive Disease,[2],33.3%
same,Stable Disease,[2],30.3%
same,% Patients without disease progression at 12 months,EGFR FISH disomy,8.3%
same,Complete and Partial Response,EGFR FISH disomy,no responders
same,Median Time to Progression,EGFR FISH disomy,2.5 months
same,One-year Survival Rate,EGFR FISH disomy,38.9%
same,Progressive Disease,EGFR FISH disomy,75%
same,Stable Disease,EGFR FISH disomy,25.0%
same,% Patients without disease progression at 12 months,EGFR FISH high polysomy,35.0%
same,Disease Control Rate,EGFR FISH high polysomy,60.0%
same,Median Time to Progression,EGFR FISH high polysomy,6.6 months
same,One-year Survival Rate,EGFR FISH high polysomy,65.0%
same,Progressive Disease,EGFR FISH high polysomy,40%
same,Stable Disease,EGFR FISH high polysomy,35%
same,% Patients without disease progression at 12 months,EGFR FISH high trisomy,100%
same,Complete and Partial Response,EGFR FISH high trisomy,100%
same,Disease Control Rate,EGFR FISH high trisomy,100%
same,Median Overall Survival,EGFR FISH high trisomy,13.7 months
same,One-year Survival Rate,EGFR FISH high trisomy,100%
same,% Patients without disease progression at 12 months,EGFR FISH low polysomy,0%
same,Complete and Partial Response,EGFR FISH low polysomy,no responders
same,Disease Control Rate,EGFR FISH low polysomy,14.3%
same,Median Overall Survival,EGFR FISH low polysomy,3.0 months
same,Median Time to Progression,EGFR FISH low polysomy,2.1 months
same,Progressive Disease,EGFR FISH low polysomy,86% and 85.7%
same,Stable Disease,EGFR FISH low polysomy,14.3%
same,% Patients without disease progression at 12 months,EGFR FISH low trisomy,5.9%
same,Complete and Partial Response,EGFR FISH low trisomy,no responders
same,Disease Control Rate,EGFR FISH low trisomy,29.4%
same,Median Overall Survival,EGFR FISH low trisomy,10.2 months
same,Median Time to Progression,EGFR FISH low trisomy,3.6 months
same,One-year Survival Rate,EGFR FISH low trisomy,41.2%
same,Progressive Disease,EGFR FISH low trisomy,71% and 70.6%
same,Stable Disease,EGFR FISH low trisomy,29.4%
same,1-year Cumulative Survival ± SD,EGFR FISH+/P-Akt+,33 ± 9%
same,Median Survival,EGFR FISH+/P-Akt+,18.7 months
same,1-year Cumulative Survival ± SD,EGFR FISH+/P-Akt-,75 ± 22%
same,Median Time to Progression,EGFR FISH+/P-Akt-,1.1 months
same,Objective Response,EGFR FISH+/P-Akt-,0%
same,Disease Control Rate,[3],28% and 19/27%
same,Median Time to Progression,[3],2.5 months
same,Objective Response,[3],3% and 2/3%
same,Median Time to Progression,EGFR FISH-/P-Akt+,2.6 months
same,Objective Response,EGFR FISH-/P-Akt+,5% and 2/5%
same,1-year Cumulative Survival ± SD,EGFR FISH-/P-Akt-,57 ± 9%
same,Disease Control Rate,EGFR FISH-/P-Akt-,6/22%
same,Median Time to Progression,EGFR FISH-/P-Akt-,2.4 months
same,Objective Response,EGFR FISH-/P-Akt-,0%
same,1-year survival,EGFR IHC score 0-99,27% and 27 ± 10%
same,MS (median overall survival),EGFR IHC score 0-99,4.5 mo
same,PD (progressive disease),EGFR IHC score 0-99,19 (95%)
same,TTP,EGFR IHC score 0-99,2.1 mo
same,1-year survival,EGFR IHC score 100-199,35% and 35 ± 10%
same,MS (median overall survival),EGFR IHC score 100-199,5.3 mo
same,OR (objective response),EGFR IHC score 100-199,2 (10%)
same,TTP,EGFR IHC score 100-199,2.3 mo
same,MS (median overall survival),EGFR IHC score 200-299,15.2 mo
same,OR (objective response),EGFR IHC score 200-299,4 (26%)
same,PD (progressive disease),EGFR IHC score 200-299,5 (33%)
same,MS (median overall survival),EGFR IHC score 300-400,11.3 mo
same,PD (progressive disease),EGFR IHC score 300-400,21 (49%)
same,TTP,EGFR IHC score 300-400,4.5 mo
same,1-year survival,EGFR IHC+ (≧200),48 ± 7%
same,MS (median overall survival),EGFR IHC+ (≧200),11.5 mo
same,TTP,EGFR IHC+ (≧200),5.2 mo
same,Median Time to Progression,EGFR IHC+/P-Akt+,6.2 months
same,1-year Cumulative Survival ± SD,EGFR IHC+/P-Akt-,35 ± 12%
same,Median Time to Progression,EGFR IHC+/P-Akt-,1.8 months
same,Objective Response,EGFR IHC+/P-Akt-,0%
same,1-year survival,EGFR IHC- (<200),31 ± 7%
same,MS (median overall survival),EGFR IHC- (<200),5.0 mo
same,TTP,EGFR IHC- (<200),2.3 mo
same,1-year Cumulative Survival ± SD,[4],35 ± 7%
same,Median Time to Progression,[4],2.3 months
same,Objective Response,[4],4% and 2/3%
same,Disease Control Rate,EGFR IHC-/P-Akt+,7/27%
same,Median Time to Progression,EGFR IHC-/P-Akt+,2.3 months
same,Objective Response,EGFR IHC-/P-Akt+,2/8%
same,1-year Cumulative Survival ± SD,EGFR IHC-/P-Akt-,54 ± 8%
same,Disease Control Rate,EGFR IHC-/P-Akt-,1/7%
same,Median Survival,EGFR IHC-/P-Akt-,4.2 months
same,Median Time to Progression,EGFR IHC-/P-Akt-,2.0 months
same,Objective Response,EGFR IHC-/P-Akt-,0%
same,Median Survival,EGFR Mutation+/P-Akt+,20.8 months
same,Median Time to Progression,EGFR Mutation+/P-Akt+,11.2 months
same,Disease Control Rate,EGFR Mutation+/P-Akt-,0%
same,Median Survival,EGFR Mutation+/P-Akt-,3.1 months
same,Median Time to Progression,EGFR Mutation+/P-Akt-,1.1 months
same,Objective Response,EGFR Mutation+/P-Akt-,0%
same,1-year Cumulative Survival ± SD,EGFR Mutation-/P-Akt+,50 ± 35%
same,Median Time to Progression,EGFR Mutation-/P-Akt+,2.7 months
same,Objective Response,EGFR Mutation-/P-Akt+,4/9%
same,1-year Cumulative Survival ± SD,EGFR Mutation-/P-Akt-,65 ± 14%
same,Disease Control Rate,EGFR Mutation-/P-Akt-,6/22%
same,Median Time to Progression,EGFR Mutation-/P-Akt-,2.4 months
same,Objective Response,EGFR Mutation-/P-Akt-,0%
same,% Patients without disease progression at 12 months,EGFR gene amplification,46.2%
same,Complete and Partial Response,EGFR gene amplification,53.8% and 54%
same,Disease Control Rate,EGFR gene amplification,76% and 76.9%
same,Median Time to Progression,EGFR gene amplification,6.0 months
same,One-year Survival Rate,EGFR gene amplification,61.5%
same,Progressive Disease,EGFR gene amplification,23.1%
same,Stable Disease,EGFR gene amplification,23.1%
same,1-year survival,EGFR mutation absent,38 ± 6
same,PD,EGFR mutation absent,50 (68%)
same,TTP,EGFR mutation absent,2.6 mo
same,1-year survival,EGFR mutation present,57 ± 13
same,MS,EGFR mutation present,20.8 mo
same,TTP,EGFR mutation present,9.9 mo
same,Disease Control Rate,[5],32% and 23/31%
same,Median Time to Progression,[5],2.6 months
same,Objective Response,[5],6% and 4/5%
same,DCR,HER2 FISH+,56.5%
same,OR,HER2 FISH+,34.8%
same,OS,HER2 FISH+,20.8 months
same,TTP,HER2 FISH+,9.05 months
same,DCR,HER2 FISH+ and/or EGFR FISH+,57.1%
same,OR,HER2 FISH+ and/or EGFR FISH+,28.6%
same,DCR,[6],51.5%
same,OR,[6],19.1%
same,OR,HER2 FISH+ and/or EGFR mutation+ (other groups combined),30.8%
same,DCR,HER2 FISH+/EGFR FISH+,76.9%
same,OR,HER2 FISH+/EGFR FISH+,53.8%
same,median OS,HER2 FISH+/EGFR FISH+,20.8 months
same,median TTP,HER2 FISH+/EGFR FISH+,9.8 months
same,OR,HER2 FISH+/EGFR FISH-,21.0%
same,median TTP,HER2 FISH+/EGFR FISH-,2.3 months
same,DCR,HER2 FISH+/EGFR IHC+,76.9%
same,OR,HER2 FISH+/EGFR IHC+,53.8%
same,OS,HER2 FISH+/EGFR IHC+,20.8 months
